Assay results as given in publication PMC9516332 (Frontiers in Oncology, 2022).
Read-outs that look alike come from different tables or passages of the source.

Tested on: 134 cancer cell lines
Assay: Cell viability assay (ATPlite, 72 hours), IC50 on cancer cell line panel

With `CCCS(=O)(=O)Nc1ccc(F)c(C(=O)c2c[nH]c3ncc(-c4ccc(Cl)cc4)cc23)c1F` [vemurafenib] the IC50 (Homo sapiens, MOLT-4, read-out: IC50 in cell proliferation assay, MOLT-4 cell line) was 30.6 µM, the IC50 (Homo sapiens, MV4-11, read-out: IC50 in cell proliferation assay, MV4-11 cell line (FLT3 ITD)) was 31.2 µM and the IC50 (Homo sapiens, MeWo, read-out: IC50 in cell proliferation assay, MeWo cell line) was over 31.6 µM. It also gave an IC50 (Homo sapiens, NCCIT, read-out: IC50 in cell proliferation assay, NCC-IT cell line) of 25.5 µM, an IC50 (Homo sapiens, NCI-H82, read-out: IC50 in cell proliferation assay, cell line NCI-H82) of 22.8 µM and an IC50 (Homo sapiens, NCI-H460, read-out: IC50 in cell proliferation assay, NCI-H460 cell line) of 26.9 µM. For the same compound, the IC50 (Homo sapiens, NCI-H661, read-out: IC50 in cell proliferation assay, NCI-H661 cell line) was over 31.6 µM, the IC50 (Homo sapiens, NCI-H716, read-out: IC50 in cell proliferation assay, cell line NCI-H716 (FGFR2-COL14A1)) was over 31.6 µM and the IC50 (Homo sapiens, NCI-H1650, read-out: IC50 in cell proliferation assay, NCI-H1650 cell line (EGFR exon19del)) was over 31.6 µM. The IC50 (Homo sapiens, NCI-H1975, read-out: IC50 in cell proliferation assay, NCI-H1975 cell line (EGFR p.L858R + p.T790M)) was over 31.6 µM, the IC50 (Homo sapiens, NCI-H2228, read-out: IC50 in cell proliferation assay, NCI-H2228 cell line (EML4-ALK)) was over 31.6 µM and the IC50 (Homo sapiens, OVCAR-3, read-out: IC50 in cell proliferation assay, cell line OVCAR-3) was over 31.6 µM. For the same compound, the IC50 (Homo sapiens, PFSK-1, read-out: IC50 in cell proliferation assay, cell line PFSK-1) was over 31.6 µM, the IC50 (Homo sapiens, RL95-2, read-out: IC50 in cell proliferation assay, cell line RL95-2 (EGFR p.A289V)) was over 31.6 µM and the IC50 (Homo sapiens, RPMI-7951, read-out: IC50 in cell proliferation assay, cell line RPMI-7951 (BRAF p.V600E)) was 15.7 µM. The IC50 (Homo sapiens, RS4-11, read-out: IC50 in cell proliferation assay, cell line RS4;11) was over 31.6 µM, the IC50 (Homo sapiens, Rec1, read-out: IC50 in cell proliferation assay, cell line REC-1) was 8.15 µM and the IC50 (Homo sapiens, SHP77, read-out: IC50 in cell proliferation assay, cell line SHP-77) was over 31.6 µM. The IC50 (Homo sapiens, SK-BR-3, read-out: IC50 in cell proliferation assay, cell line SK-BR-3 (ERBB2 amplification)) was over 31.6 µM, the IC50 (Homo sapiens, SK-N-AS, read-out: IC50 in cell proliferation assay, cell line SK-N-AS) was over 31.6 µM and the IC50 (Homo sapiens, SK-N-FI, read-out: IC50 in cell proliferation assay, cell line SK-N-FI) was over 31.6 µM. For the same compound, the IC50 (Homo sapiens, SK-N-MC, read-out: IC50 in cell proliferation assay, cell line SK-N-MC) was over 31.6 µM, the IC50 (Homo sapiens, SK-N-SH, read-out: IC50 in cell proliferation assay, cell line SK-N-SH (ALK p.F1174L)) was over 31.6 µM and the IC50 (Homo sapiens, SNU-5, read-out: IC50 in cell proliferation assay, cell line SNU-5 (MET amplification)) was 31.4 µM. It also gave an IC50 (Homo sapiens, SNU-16, read-out: IC50 in cell proliferation assay, cell line SNU-16 (FGFR2 amplification)) of over 31.6 µM, an IC50 (Homo sapiens, SNU-C2B, read-out: IC50 in cell proliferation assay, cell line SNU-C2B (EGFR p.R165Q)) of over 31.6 µM and an IC50 (Homo sapiens, SU-DHL-1, read-out: IC50 in cell proliferation assay, cell line SU-DHL-1 (NPM1-ALK)) of 23.5 µM. The IC50 (Homo sapiens, SU-DHL-6, read-out: IC50 in cell proliferation assay, cell line SU-DHL-6) was over 31.6 µM, the IC50 (Homo sapiens, SUP-T1, read-out: IC50 in cell proliferation assay, cell line SUP-T1) was over 31.6 µM and the IC50 (Homo sapiens, SW48, read-out: IC50 in cell proliferation assay, cell line SW48 (EGFR p.G719S)) was over 31.6 µM. The IC50 (Homo sapiens, SW480, read-out: IC50 in cell proliferation assay, cell line SW480) was over 31.6 µM, the IC50 (Homo sapiens, SW626, read-out: IC50 in cell proliferation assay, cell line SW626) was over 31.6 µM and the IC50 (Homo sapiens, SW780, read-out: IC50 in cell proliferation assay, cell line SW780 (FGFR3-BAIAP2L1)) was over 31.6 µM. The IC50 (Homo sapiens, SW837, read-out: IC50 in cell proliferation assay, cell line SW837) was over 31.6 µM, the IC50 (Homo sapiens, SW872, read-out: IC50 in cell proliferation assay, cell line SW872 (BRAF p.V600E)) was 1.15 µM and the IC50 (Homo sapiens, SW900, read-out: IC50 in cell proliferation assay, cell line SW900) was 26.7 µM. The IC50 (Homo sapiens, SW948, read-out: IC50 in cell proliferation assay, cell line SW948) was over 31.6 µM, the IC50 (Homo sapiens, SW982, read-out: IC50 in cell proliferation assay, cell line SW982 (BRAF p.V600E)) was 22.3 µM and the IC50 (Homo sapiens, SW-620, read-out: IC50 in cell proliferation assay, cell line SW620) was over 31.6 µM. For the same compound, the IC50 (Homo sapiens, T98G, read-out: IC50 in cell proliferation assay, cell line T98G) was 19.1 µM, the IC50 (Homo sapiens, TCC-SUP, read-out: IC50 in cell proliferation assay, cell line TCCSUP) was over 31.6 µM and the IC50 (Homo sapiens, THP-1, read-out: IC50 in cell proliferation assay, cell line THP-1) was over 31.6 µM. The IC50 (Homo sapiens, U2OS, read-out: IC50 in cell proliferation assay, cell line U2OS) was over 31.6 µM, the IC50 (Homo sapiens, U-87 MG, read-out: IC50 in cell proliferation assay, cell line U-87MG ATCC) was over 31.6 µM and the IC50 (Homo sapiens, U-118-MG, read-out: IC50 in cell proliferation assay, cell line U-118MG) was over 31.6 µM. For the same compound, the IC50 (Homo sapiens, UMUC3, read-out: IC50 in cell proliferation assay, cell line UM-UC-3) was over 31.6 µM, the IC50 (Hs766T, read-out: IC50 in cell proliferation assay, Hs 766T cell line) was over 31.6 µM and the IC50 (L-82, read-out: IC50 in cell proliferation assay, L-82 cell line (NPM1-ALK)) was 26.8 µM. It also gave an IC50 (Rh30, read-out: IC50 in cell proliferation assay, cell line Rh30) of over 31.6 µM, an IC50 (read-out: IC50 in cell proliferation assay, 11-18 cell line (EGFR p.L858R)) of over 31.6 µM and an IC50 (read-out: IC50 in cell proliferation assay, Hs 852.T cell line) of over 31.6 µM. It also gave an IC50 (read-out: IC50 in cell proliferation assay, JAR cell line) of 14.7 µM, an IC50 (read-out: IC50 in cell proliferation assay, cell line 5637) of 25.1 µM and an IC50 (read-out: IC50 in cell proliferation assay, cell line A-388) of over 31.6 µM. It also gave an IC50 (read-out: IC50 in cell proliferation assay, cell line DB) of 24.5 µM, an IC50 (read-out: IC50 in cell proliferation assay, cell line DEL (NPM1-ALK)) of over 31.6 µM and an IC50 (read-out: IC50 in cell proliferation assay, cell line ES-2 (BRAF p.V600E)) of 2.33 µM. The IC50 (read-out: IC50 in cell proliferation assay, cell line PA-1) was 15.7 µM, the IC50 (read-out: IC50 in cell proliferation assay, cell line PC-3) was over 31.6 µM and the IC50 (read-out: IC50 in cell proliferation assay, cell line RD) was over 31.6 µM. It also gave an IC50 (read-out: IC50 in cell proliferation assay, cell line RKO (BRAF p.V600E)) of 3.08 µM, an IC50 (read-out: IC50 in cell proliferation assay, cell line RL) of 24.8 µM and an IC50 (read-out: IC50 in cell proliferation assay, cell line RT-4 (FGFR3-TACC3)) of over 31.6 µM. It also gave an IC50 (read-out: IC50 in cell proliferation assay, cell line T24) of 30.7 µM, an IC50 (read-out: IC50 in cell proliferation assay, cell line TT (RET p.C634W)) of over 31.6 µM and an IC50 (read-out: IC50 in cell proliferation assay, cell line VA-ES-BJ) of over 31.6 µM.
